Measurements from patent US9539273B2, “Targeted delivery of anti-fungal agents” (EDH Biotech Corp, priority 2013, dated 2017).

Assay: Binding of stilbene derivatives to chitosan, dissociation constants by indirect difference spectroscopy
Settings: qualitative statement on binding affinity
Description: Binding studies of stilbene derivatives to chitosan or MHEC

| SMILES | binding to chitosan (in words) |
| --- | --- |
| Nc1ccc(C=Cc2ccc(N)cc2S(=O)(=O)O)c(S(=O)(=O)O)c1 [4,4′-diaminostilbene-2,2′-disulfonic acid] | neither the core structure itself nor its bis(dichlorotriazine) derivative (R^4a═R^6a═R^4b═R^6b═Cl) binds to chitosan |
| O=S(=O)(O)c1cc(Nc2nc(NCCO)nc(Nc3ccccc3)n2)ccc1C=Cc1ccc(Nc2nc(NCCO)nc(Nc3ccccc3)n2)cc1S(=O)(=O)O [OB85] | no significant improvement in binding |
| O=S(=O)(O)c1cc(Nc2nc(Nc3ccccc3)nc(N(CCO)CCO)n2)ccc1/C=C/c1ccc(Nc2nc(Nc3ccccc3)nc(N(CCO)CCO)n2)cc1S(=O)(=O)O [calcofluor white] | no significant improvement in binding |
